Details: not given

Compound | melting point [°C] | boiling point [°C] | log10 vapour pressure (mmHg) | ready biodegradability | log10 Koc (L/kg) | log10 Henry constant (atm·m³/mol) | log10 Koa
CC(=O)OCC(=O)[C@@]12OC(C)(C)O[C@@H]1C[C@H]1[C@@H]3C[C@H](F)C4=CC(=O)C=C[C@]4(C)[C@@]3(F)[C@@H](O)C[C@@]12C | 309 | – | – | – | – | – | –
CC(C)(C)C(=O)CCl | -13 | 172 | – | – | – | – | –
COc1cccc(C(=O)O)c1OC | 123 | – | -5.73 | – | – | – | –
C=CC/C=C/C/C=C/C/C=C/C | – | – | – | not readily biodegradable | – | – | –
CCC(=O)C=Cc1ccccc1 | 38.5 | – | – | – | – | – | –
CCC#CC(C)C | -117 | 95.2 | – | – | – | – | –
CC(=O)I | – | 108 | 1.51 | – | – | – | –
CCN(Cc1c(F)cccc1Cl)c1c([N+](=O)[O-])cc(C(F)(F)F)cc1[N+](=O)[O-] | 102 | – | -6.62 | – | 4 | – | –
OCCOc1cccc2ccccc12 | 45 | – | – | – | – | – | –
COc1ccco1 | – | 110 | – | – | – | – | –
CSc1nnc(C(C)(C)C)c(=O)n1N | 126 | – | -6.36 | – | 1.71 | – | –
CCN(CC)S(=O)(=O)c1ccc(C(=O)O)cc1 | 193 | – | – | – | – | – | –
O=C1c2ccccc2C(=O)c2c1ccc1ccccc21 | 170 | – | – | not readily biodegradable | – | – | –
CCOC(=O)C1(C)OC(=O)N(c2cc(Cl)cc(Cl)c2)C1=O (configuration not stated) | 113 | – | -7.02 | – | – | – | –
CC[C@@H](C(=O)[C@@H](C)[C@@H](O)[C@H](C)[C@@H]1O[C@@H]([C@@H](CC)C(=O)O)CC[C@@H]1C)[C@H]1O[C@]2(C=C[C@@H](O)[C@]3(CC[C@@](C)([C@H]4CC[C@](O)(CC)[C@H](C)O4)O3)O2)[C@H](C)C[C@@H]1C | 113 | – | – | – | – | – | –
BrC1CCC(Br)C(Br)CCC(Br)C(Br)CCC1Br (configuration not stated) | – | – | -6.33 | not readily biodegradable | – | – | –
Cc1cc(C(C)(C)C)cc(C)c1O | 82.4 | 248 | – | – | – | – | –
Clc1ccc(Cl)c(-c2c(Cl)ccc(Cl)c2Cl)c1Cl | – | – | – | – | 6.01 | -4.06 | –
CCOC1Oc2ccc(OS(C)(=O)=O)cc2C1(C)C (configuration not stated) | 71 | – | -5.31 | – | 2.53 | – | –
CC(C)C(O)C(C)(C)C (configuration not stated) | -13 | 150 | – | – | – | – | –
CC1=C(CC(=O)O)c2cc(F)ccc2/C1=C\c1ccc(S(C)=O)cc1 (configuration not stated) | 183 | – | – | – | – | – | –
CC1Cc2ccccc2O1 (configuration not stated) | – | 198 | – | – | – | – | –
CC(C)(C)CC(C)(C)Nc1ncnc(N(CCCCCCNC2CC(C)(C)NC(C)(C)C2)C2CC(C)(C)NC(C)(C)C2)n1 | 138 | – | – | – | – | – | –
CCCn1cnc2c1c(=O)n(CCCCC(C)=O)c(=O)n2C | 69 | – | – | – | – | – | –

Compound | melting point [°C] | boiling point [°C] | log10 vapour pressure (mmHg) | ready biodegradability | log10 Koc (L/kg) | log10 Henry constant (atm·m³/mol) | log10 Koa
Nc1ccc(O)c2c1C(=O)c1ccccc1C2=O | 216 | – | -8.52 | – | – | – | –
Clc1ccc(-c2ccc(Cl)cc2)cc1 | 149 | 317 | -3.27 | – | – | -3.7 | 7.68
CC(=O)Nc1ccc2c(c1)Cc1cc(F)ccc1-2 | – | – | – | not readily biodegradable | – | – | –
CC(=O)OCC(=O)O | 67.5 | – | – | – | – | – | –
C=C(C)[C@]1(O)C2OC(=O)C1[C@]1(O)[C@H]3O[C@H]3[C@]3(CO3)[C@]1(C)C2O (some centres not stated) | 225 | – | – | – | – | – | –
Cc1ccc2cnccc2c1 | 85.5 | 266 | – | – | – | – | –
CC(=O)OO[N+](=O)[O-] | – | 106 | – | – | – | -3.56 | –
C#C[C@]1(O)CC[C@H]2[C@@H]3CCC4=C(CCC(=O)C4)[C@H]3CC[C@@]21C | 170 | – | – | – | – | – | –
CCOC(=O)C(CC)C(C)=O (configuration not stated) | – | 198 | – | – | – | – | –
CNCCc1ccccc1 | – | 206 | – | – | – | – | –
Clc1cc(Cl)c2ccccc2c1 | 62.3 | 291 | – | – | – | – | –
Cc1cccc(Cl)n1 | – | 184 | – | – | – | – | –
O=C(CBr)c1ccccc1 | 50.5 | – | – | – | – | – | –
FC(Br)(Br)Br | -73.6 | 108 | – | – | – | – | –
C=Cc1cccc(C)c1 | -86.3 | 164 | 0.231 | – | – | – | –
CCCCOC=O | -91.5 | 106 | 1.46 | – | – | – | –
CCCCN=C=O | – | 115 | 1.25 | – | – | – | –
CC(=O)C1CCOC1=O (configuration not stated) | – | – | – | readily biodegradable | – | – | –
CCCCCCCCCCCCCCCCCCCCCCCCCCCCCCO | 88 | – | – | – | – | – | –
Clc1cccc2ncccc12 | 45 | 256 | – | – | – | – | –
CCC(C)(O)CCC(C)C (configuration not stated) | – | 173 | – | – | – | – | –
Cc1ccc(O)cc1O | 106 | 268 | – | – | – | – | –
CCCc1cccc(O)c1 | 26 | 228 | – | – | – | – | –
CCCCCCCCCCCCCC[N+](C)(C)C.[Br-] | 248 | – | – | – | – | – | –

Compound | melting point [°C] | boiling point [°C] | log10 vapour pressure (mmHg) | ready biodegradability | log10 Koc (L/kg) | log10 Henry constant (atm·m³/mol) | log10 Koa
CC(=O)CC(=O)Nc1ccc(C)cc1C | 90 | – | – | not readily biodegradable | – | – | –
O=c1[nH]ncc2ccccc12 | 188 | – | – | – | – | – | –
Cc1cnc2ccccc2c1C | 73.5 | 291 | – | – | – | – | –
CCCOCOCCC | -97.3 | 140 | – | – | – | – | –
CCCCCO[N+](=O)[O-] | – | 157 | 0.705 | – | – | -2.78 | –
Brc1ccc(-c2ccc(Br)cc2)cc1 | 164 | 358 | – | not readily biodegradable | – | – | –
Clc1ncccn1 | 67 | – | – | – | – | – | –
O=C(O)CNCC(=O)O | 248 | – | – | – | – | – | –
O=C(O)c1cc([N+](=O)[O-])cc([N+](=O)[O-])c1 | 205 | – | – | not readily biodegradable | 1.53 | – | –
CC1=CC(=O)C[C@H](C)C1 | – | 208 | – | – | – | – | –
C=C(CC(=O)O)C(=O)O | 175 | – | – | readily biodegradable | – | – | –
CC(C)(CCl)c1ccccc1 | – | 223 | – | – | – | – | –
Cc1ccccc1Oc1ccccc1 | 21.7 | 264 | – | – | – | – | –
CCC(C(C)=O)C(=O)OC (configuration not stated) | – | 182 | – | – | – | – | –
C[Si](C)(Cl)O[Si](C)(C)Cl | -37.5 | 138 | – | – | – | – | –
N#CCCCOc1ccccc1 | 45.5 | 288 | – | – | – | – | –
COc1cccc([N+](=O)[O-])c1 | 38.5 | 258 | – | not readily biodegradable | – | – | –
CC(=O)Nc1ccc(S(=O)(=O)O)cc1 | – | – | – | not readily biodegradable | – | – | –
C[N+](C)(C)CCOC(=O)CCC(=O)OCC[N+](C)(C)C.[Cl-].[Cl-] | 190 | – | – | – | – | – | –
CC(C)(Oc1ccc(CCNC(=O)c2ccc(Cl)cc2)cc1)C(=O)O | 186 | – | – | – | – | – | –
NNC=O | 55 | – | – | – | – | – | –
O=C(CCl)c1ccc(Cl)cc1 | 102 | 270 | – | – | – | – | –
COc1ccc(C(=O)c2coc(S(N)(=O)=O)c2)cc1 | 181 | – | – | – | – | – | –
Cc1c2ccccc2cc2ccc3ccccc3c12 | 138 | – | – | – | – | – | –

Compound | melting point [°C] | boiling point [°C] | log10 vapour pressure (mmHg) | ready biodegradability | log10 Koc (L/kg) | log10 Henry constant (atm·m³/mol) | log10 Koa
C=C(Cl)C(=C)Cl | – | 98 | – | – | – | – | –
C=C(C)C=O | -81 | 68.4 | 2.19 | – | – | -3.63 | –
CCCCCCCCCCCC1=C(O)C(=O)C=C(O)C1=O | 142 | – | – | – | – | – | –
O=C1CNC(=O)N1 | 220 | – | – | readily biodegradable | – | – | –
CCCCCCCCCCCCN | 28.3 | 259 | -2.09 | – | – | – | –
CC1(C)C2CCC(C=O)C1C2 (configuration not stated) | – | 220 | – | – | – | – | –
CC(C)=CC(=O)Cl | – | 146 | – | – | – | – | –
Brc1ccc(Oc2cccc(Br)c2)cc1 | – | – | – | – | – | – | 8.57
COc1cc(C=CC(=O)O)ccc1O | – | – | – | readily biodegradable | – | – | –
CC(C)C=CC(=O)O | 35 | 217 | – | – | – | – | –
CCCCCCCCCCCCCCCCCC(=O)OCCOC(=O)CCCCCCCCCCCCCCCCC | 79 | – | – | readily biodegradable | – | – | –
CCOc1ccc(C(COCc2cccc(Oc3ccc(Cl)cc3)c2)C(F)(F)F)cc1 (configuration not stated) | – | – | -9.01 | – | – | – | –
CCCCCCCCCCCCCCCCCC(=O)NCCNC(=O)CCCCCCCCCCCCCCCCC | – | – | – | not readily biodegradable | – | – | –
CCCC(C)(C)C(C)CC (configuration not stated) | – | 161 | – | – | – | – | –
CCCCCCCCC#N | -34.2 | 224 | – | readily biodegradable | – | – | –
Cc1ccc(C)c(O)c1C | 58 | 226 | -1.46 | not readily biodegradable | – | – | –
COC(=O)Nc1cccc(C)c1 | – | – | – | readily biodegradable | – | – | –
C=CCC(C)C(C)C (configuration not stated) | – | 109 | – | – | – | – | –
CCOC(=O)c1ccncc1 | 23 | 220 | – | – | – | – | –
Ic1cccc(-c2ccccc2)c1 | 26.5 | – | – | – | – | – | –
C/C(=C\CNc1ncnc2[nH]cnc12)CO | 208 | – | – | – | – | – | –
CN(C)c1ccc(N=Nc2ccc([N+](=O)[O-])cc2)cc1 | 236 | – | -10 | – | – | – | –
CCCCCCCC/C=C\CCCCCCCC(=O)OCCCC | -26.5 | – | – | – | – | – | –

Same assay, conditions: fish

Compound | log10 BCF | log10 biotransformation half-life (days)
O=C1c2ccccc2C(=O)c2c1ccc1ccccc21 | 1.69 | -0.84
Clc1ccc(Cl)c(-c2c(Cl)ccc(Cl)c2Cl)c1Cl | – | 2.34
C=Cc1cccc(C)c1 | 1.55 | –
Brc1ccc(-c2ccc(Br)cc2)cc1 | 3.92 | 1.57
COc1cccc([N+](=O)[O-])c1 | 0.78 | -1.04

Source: the OPERA property sets (Mansouri et al. 2018)
